Laboratory results as given in patent US9309242B2, “Substituted pyrido[2,3-b]pyrazines as FGFR kinase inhibitors” (priority 2011, dated 2016).
Like-named read-outs stand apart in the source and are kept apart here.

Legend:
[1] = test system: Ba/F3-FGFR3-transfected cells; experiment: Ba/F3-FGFR3 (plus IL3) cellular proliferation assay, counterscreen with 10 ng/ml murine IL3; type: cell-based; conditions: read-out: BAF3-FGFR3 (PLUS IL3) pIC50 (converted)
Procedure, shortened: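 With or without 10 ng/ml murine IL3, FGFR3-dependent Ba/F3 cells were treated 24 h with compound, then viability was gauged by Alamar Blue fluorescence after 4 h (ex 540/em 590 nm).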

[2] = target: T1, Ba/F3-KDR-transfected cells (Homo sapiens, UniProt P35968); experiment: Ba/F3-KDR (minus IL3) cellular proliferation assay, Alamar Blue; type: cell-based
T1 construct: BAF3-KDR (MIN IL3) pIC50; other: minus IL3
T1 sequence (P35968 whole entry, change not shown): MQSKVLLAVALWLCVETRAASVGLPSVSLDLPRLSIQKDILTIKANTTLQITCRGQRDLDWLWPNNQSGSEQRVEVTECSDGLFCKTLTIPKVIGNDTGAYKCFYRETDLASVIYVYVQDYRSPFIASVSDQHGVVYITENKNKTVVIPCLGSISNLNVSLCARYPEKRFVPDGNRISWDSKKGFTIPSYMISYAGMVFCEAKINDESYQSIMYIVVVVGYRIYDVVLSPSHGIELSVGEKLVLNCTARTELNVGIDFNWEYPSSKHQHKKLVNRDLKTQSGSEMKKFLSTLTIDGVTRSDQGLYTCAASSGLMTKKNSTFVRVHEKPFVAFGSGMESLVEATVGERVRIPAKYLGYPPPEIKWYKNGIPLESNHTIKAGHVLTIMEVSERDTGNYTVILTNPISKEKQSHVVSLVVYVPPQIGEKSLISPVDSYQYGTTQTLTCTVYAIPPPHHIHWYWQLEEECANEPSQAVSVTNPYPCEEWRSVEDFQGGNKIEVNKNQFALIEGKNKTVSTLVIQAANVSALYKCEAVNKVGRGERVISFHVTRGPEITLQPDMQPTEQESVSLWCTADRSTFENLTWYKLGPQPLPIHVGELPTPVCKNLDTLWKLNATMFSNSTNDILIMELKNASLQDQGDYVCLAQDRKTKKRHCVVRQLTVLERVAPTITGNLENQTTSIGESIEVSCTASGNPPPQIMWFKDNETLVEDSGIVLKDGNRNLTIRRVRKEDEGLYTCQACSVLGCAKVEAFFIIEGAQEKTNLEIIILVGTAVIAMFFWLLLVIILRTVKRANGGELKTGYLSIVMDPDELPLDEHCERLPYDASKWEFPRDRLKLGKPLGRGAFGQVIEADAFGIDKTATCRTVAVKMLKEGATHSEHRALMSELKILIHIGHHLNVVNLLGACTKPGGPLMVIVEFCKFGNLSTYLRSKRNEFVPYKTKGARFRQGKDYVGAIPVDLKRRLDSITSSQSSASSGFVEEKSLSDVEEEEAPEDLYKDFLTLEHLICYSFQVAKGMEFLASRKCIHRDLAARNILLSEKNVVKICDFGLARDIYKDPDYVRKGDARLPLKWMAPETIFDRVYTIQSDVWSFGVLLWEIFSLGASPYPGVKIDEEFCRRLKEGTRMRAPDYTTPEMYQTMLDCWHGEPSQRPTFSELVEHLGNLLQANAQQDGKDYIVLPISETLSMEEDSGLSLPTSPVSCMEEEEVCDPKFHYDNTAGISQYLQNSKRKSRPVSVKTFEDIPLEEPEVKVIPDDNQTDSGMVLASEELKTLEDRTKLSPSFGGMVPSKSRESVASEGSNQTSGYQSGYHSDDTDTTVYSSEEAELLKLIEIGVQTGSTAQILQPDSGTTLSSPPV
Procedure, shortened: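 Proliferation read-out by Alamar Blue fluorescence (ex. 540 nm, em. 590 nm) after 4 hours, following 24 hours of compound treatment at 37° C of 20000 Ba/F3-KDR cells per well in RPMI-1640/10% FBS. Same protocol with 10 ng/ml murine IL3 serves as counterscreen.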

[3] = plus IL3 (10 ng/ml murine IL3, counterscreen)

Row | SMILES | IC50 [1, 3] [µM] | BAF3-KDR (MIN IL3) pIC50 [2] | melting point [°C] | IC50 [1] [µM]
1 | COc1cc(OC)c(Cl)c(N(C[C@H]2CCC(=O)N2)c2ccc3ncc(-c4cnn(C)c4)nc3n2)c1Cl [Compound 97] | > 10 | 5.35 | 150 | 
2 | COc1cc(OC)cc(N(CC(O)C(F)(F)F)c2ccc3ncc(-c4cnn(C)c4)nc3n2)c1 (single isomer, unassigned) [Compound 33] | > 10 | 5.26 | 208 | 
3 | CNCCn1/c(=N/c2c(F)cccc2F)ccc2ncc(-c3cnn(C)c3)nc21 [Compound 44] | > 10 | <5 | 80 | 
4 | COc1cc(/N=c2\ccc3ncc(-c4cnn(C)c4)nc3n2CC(O)COC(C)C)c(F)c(OC)c1 (single isomer, unassigned) [Compound 77] | > 10 | 5.33 | 96 to 97 | 
5 | COc1cc(OC)c(F)c(/N=c2\ccc3ncc(-c4cnn(C)c4)nc3n2CCCN2CCCC2=O)c1F [Compound 55] | > 10 | 7.13 | 227 | 
6 | COc1cc(/N=c2\ccc3ncc(-c4cnn(C)c4)nc3n2CC2CCC(=O)N2)c(F)c(OC)c1 (stereo not shown) [Compound 45] | > 10 | ~5.96 | 127 | 
7 | COc1cc(O)cc(N(Cc2ncc[nH]2)c2ccc3ncc(-c4cnn(C)c4)nc3n2)c1 [Compound 103] | > 10 | 6.40 | 172 | 
8 | COc1cc(OC)c(F)c(N(Cc2nn[nH]n2)c2ccc3ncc(-c4cnn(C)c4)nc3n2)c1 [Compound 140] | > 10 | <5 | 149 | 
9 | COCC(O)Cn1c(=Nc2c(F)c(OC)cc(OC)c2F)ccc2ncc(-c3cnn(C)c3)nc21 (stereo not shown) [Compound 51] | > 10 | 5.93 | 180 | 
10 | COc1cc(O)cc(N(Cc2ncc[nH]2)c2ccc3ncc(-c4cnn(C)c4)nc3n2)c1F [Compound 95] | > 9.33 | 6.85 | 218 | 
11 | COc1cc(OC)cc(N(Cc2nc[nH]n2)c2ccc3ncc(-c4cnn(C)c4)nc3n2)c1 [Compound 71] |  | 6.03 | 238 | > 10
12 | COc1cc(OC)cc(N(CC2CCC(=O)N2)c2ccc3ncc(-c4cnn(C)c4)nc3n2)c1 (stereo not shown) [Compound 49] | > 10 | 5.16 | 182 | 
13 | COc1cc(OC)c(Cl)c(/N=c2\ccc3ncc(-c4cnn(C)c4)nc3n2CC2CCC(=O)N2)c1Cl (single isomer, unassigned) [Compound 87] | > 10 | 5.45 | 160 | 
14 | COc1ccc(Cl)c(/N=c2\ccc3ncc(-c4cnn(C)c4)nc3n2CC2CCC(=O)N2)c1Cl (single isomer, unassigned) [Compound 89] | > 10 | <5 | 183 | 
15 | COc1cc(OC)c(F)c(N(CC2CCCCO2)c2ccc3ncc(-c4cnn(C)c4)nc3n2)c1 (stereo not shown) [Compound 139] | > 10 | 5.33 | 94 | 
16 | COc1cc(OC)c(F)c(N(CC2COC(=O)N2)c2ccc3ncc(-c4cnn(C)c4)nc3n2)c1 (stereo not shown) [Compound 124] | > 10 | 5.49 |  | 
17 | COc1ccc(Cl)c(/N=c2\ccc3ncc(-c4cnn(C)c4)nc3n2CC2CCC(=O)N2)c1Cl (stereo not shown) [Compound 92] | > 10 | <5 |  | 
18 | COc1cc(OC)c(F)c(/N=c2\ccc3ncc(-c4cnn(C)c4)nc3n2CC2CCC(=O)N2)c1F (stereo not shown) [Compound 193] | > 10 | 6.28 |  | 
19 | COc1cc(OC)c(F)c(N(Cc2nc[nH]c2C)c2ccc3ncc(-c4cnn(C)c4)nc3n2)c1 [Compound 109] | > 10 | ~6.01 |  | 
20 | COc1cc(OC)c(F)c(N(Cc2nccn2C)c2ccc3ncc(-c4cnn(C)c4)nc3n2)c1 [Compound 131] | > 10 | 5.50 |  | 
